Experimental data taken from patent US20230250108A1, “TETRAHYDROISOQUINOLINE COMPOUNDS AND USE THEREOF” (JIANGSU SIMCERE PHARMACEUTICAL CO., LTD., priority 2020, published 2023).
Structures can show the parent of a compound that is named as a salt.

Tested on: Z-138 cells
Experiment: Inhibitory activity on tumor cell proliferation (Cell-Titer Glo, 8 days)
Format: cell-based
Details: Homo sapiens, 192 h, read-out: Inhibition of cell proliferation Z-138 IC50
Experimental: Materials and cells: Z-138 cells were purchased from ATCC (USA); IMDM medium and penicillin-streptomycin were purchased from Sigma PLC. (USA); horse serum was purchased from Hyclone (USA); 96-well plate was purchased from Corning (USA); and Cell-Titer Glo reagent was purchased from Promega (USA).
Cell culture: Z-138 cells were cultured in an IMDM culture solution containing 10% Horse serum+1% penicillin−streptomycin at 37° C., 5% CO2. Cells in logarithmic growth phase were suitable for the experiment.
Detection of cell proliferation activity: The inhibitory activities of the compounds on the proliferation of Z-138 cells were detected by using the Cell-Titer Glo reagent. The concentrations of the cells were adjusted, and 180 μL was inoculated in each well of the 96-well plate (500/well) and equilibrated for 10-15 minutes at 37° C., 5% CO2. 20 μL of a culture solution containing the compounds was added into each well with the final concentration reaching 0-300 nM (initial concentration: 300 nM, 3-fold dilution, for 10 points), and the DMSO content was 0.1%. The cell plate was placed at 37° C., 5% CO2 and incubated for 8 days. Culture solution was replaced at day 4: 100 μL of the supernatant was slowly aspirated and 100 μL of a fresh culture solution containing the compounds was provided as a supplement while the concentrations of the compounds were held constant. The cell viability was detected by using the Cell-Titer Glo reagent.

Compound	IC50 [nM]
CCN1CCN(C[C@@H](O)[C@@H]2Cc3ccccc3CN2)C(=O)c2ccc(C(=O)N3CCC4(CCOCC4)C3)cc21 [Compound 010, 1-ethyl-4-((R)-2-hydroxy-2-((S)-1,2,3,4-tetrahydroisoquinolin-3-yl)ethyl)-8-(8-oxa-2-azaspiro[4.5]decane-2-carbonyl)-1,2,3,4-tetrahydro-5H-benzo[e][1,4]diazepin-5-one hydrochloride]	1.93
CCN1CCN(C[C@@H](O)[C@@H]2Cc3ccccc3CN2)C(=O)c2ccc(C(=O)N3CC4(CCC(OC)CC4)C3)cc21 [Compound 011, 1-ethyl-4-((R)-2-hydroxy-2-((S)-1,2,3,4-tetrahydroisoquinolin-3-yl)ethyl)-8-(7-methoxy-2-azaspiro[3.5]nonane-2-carbonyl)-1,2,3,4-tetrahydro-5H-benzo[e][1,4]diazepin-5-one hydrochloride]	2.2
CCN1CCN(C[C@@H](O)[C@@H]2Cc3ccccc3CN2)C(=O)c2ccc(C(=O)N3CCC4(CC4)C(F)(F)C3)cc21 [Compound 012, 8-(4,4-difluoro-6-azaspiro[2.5]octane-6-carbonyl)-1-ethyl-4-((R)-2-hydroxy-2-((S)-1,2,3,4-tetrahydroisoquinolin-3-yl)ethyl)-1,2,3,4-tetrahydro-5H-benzo[e][1,4]diazepin-5-one hydrochloride]	4.09
CCN1CCN(C[C@@H](O)[C@@H]2Cc3ccccc3CN2)C(=O)c2ccc(C(=O)N3CCC4(CC3)CC4(F)F)cc21 [Compound 013, 8-(1,1-difluoro-6-azaspiro[2.5]octane-6-carbonyl)-1-ethyl-4-((R)-2-hydroxy-2-((S)-1,2,3,4-tetrahydroisoquinolin-3-yl)ethyl)-1,2,3,4-tetrahydro-5H-benzo[e][1,4]diazepin-5-one hydrochloride]	2.37
CCN1CCN(C[C@@H](O)[C@@H]2Cc3ccccc3CN2)C(=O)c2ccc(C(=O)N3CCOCC3)cc21 [Compound 014, 1-ethyl-4-((R)-2-hydroxy-2-((S)-1,2,3,4-tetrahydroisoquinolin-3-yl)ethyl)-8-(morpholine-4-carbonyl)-1,2,3,4-tetrahydro-5H-benzo[e][1,4]diazepin-5-one hydrochloride]	11.7
CCN1CCN(C[C@@H](O)[C@@H]2Cc3ccccc3CN2)C(=O)c2ccc(C(=O)N3CCN(C(C)=O)CC3)cc21 [Compound 015, 8-(4-acetylpiperazine-1-carbonyl)-1-ethyl-4-((R)-2-hydroxy-2-((S)-1,2,3,4-tetrahydroisoquinolin-3-yl)ethyl)-1,2,3,4-tetrahydro-5H-benzo[e][1,4]diazepin-5-one hydrochloride]	11.1
CCN1CCN(C[C@@H](O)[C@@H]2Cc3ccccc3CN2)C(=O)c2ccc(C(=O)N(C)Cc3ccccc3)cc21 [Compound 016, N-benzyl-1-ethyl-4-((R)-2-hydroxy-2-((S)-1,2,3,4-tetrahydroisoquinolin-3-yl)ethyl)-N-methyl-5-oxo-2,3,4,5-tetrahydro-1H-benzo[e][1,4]diaza-8-carboxamide hydrochloride]	45.1
CCN1CCN(C[C@@H](O)[C@@H]2Cc3ccccc3CN2)C(=O)c2ccc(C(=O)N(C)CCc3ccc(F)cc3)cc21 [Compound 017, 1-ethyl-N-(4-fluorophenethyl)-4-((R)-2-hydroxy-2-((S)-1,2,3,4-tetrahydroisoquinolin-3-yl)ethyl)-N-methyl-5-oxo-2,3,4,5-tetrahydro-1H-benzo[e][1,4]diazepine-8-carboxamide hydrochloride]	27.6
CCN1CCN(C[C@@H](O)[C@@H]2Cc3ccccc3CN2)C(=O)c2ccc(C(=O)N(C)CCc3cccnc3)cc21 [Compound 018, 1-ethyl-4-((R)-2-hydroxy-2-((S)-1,2,3,4-tetrahydroisoquinolin-3-yl)ethyl)-N-methyl-5-oxo-N-(2-(pyridin-3-yl)ethyl)-2,3,4,5-tetrahydro-1H-benzo[e][1,4]diazepine-8-carboxamide hydrochloride]	26
CCN(CC)C(=O)c1ccc2c(c1)N(CC)CCN(C[C@@H](O)[C@@H]1Cc3ccccc3CN1)C2=O [Compound 019, N,N,1-triethyl-4-((R)-2-hydroxy-2-((S)-1,2,3,4-tetrahydroisoquinolin-3-yl)ethyl)-5-oxo-2,3,4,5-tetrahydro-1H-benzo[e][1,4]diazepine-8-carboxamide hydrochloride]	20.4
CCN1CCN(C[C@@H](O)[C@@H]2Cc3ccccc3CN2)C(=O)c2ccc(C(=O)N3C4CCCC3COC4)cc21 [Compound 020, 8-(3-oxa-9-azabicyclo[3,3,1]nonane-9-carbonyl)-1-ethyl-4-((R)-2-hydroxy-2-((S)-1,2,3,4-tetrahydroisoquinolin-3-yl)ethyl)-1,2,3,4-tetrahydro-5H-benzo[e][1,4]diazepin-5-one hydrochloride]	3.71
CCN1CCN(C[C@@H](O)[C@@H]2Cc3ccccc3CN2)C(=O)c2ccc(C(=O)N3CCC4(CC3)CC(N(C)C)C4)cc21 [Compound 021, 8-(2-(dimethylamino)-7-azaspiro[3.5]nonane-7-carbonyl)-1-ethyl-4-((R)-2-hydroxy-2-((S)-1,2,3,4-tetrahydroisoquinolin-3-yl)ethyl)-1,2,3,4-tetrahydro-5H-benzo[e][1,4]diazepin-5-one hydrochloride]	8.35
CCN1CCN(C[C@@H](O)[C@@H]2Cc3ccccc3CN2)C(=O)c2ccc(C(=O)N3C4CCC3CC(O)C4)cc21 (stereo partly drawn) [Compound 022, 1-ethyl-4-((R)-2-hydroxy-2-((S)-1,2,3,4-tetrahydroisoquinolin-3-yl)ethyl)-8-(3-hydroxy-8-azabicyclo[3.2.1]octane-8-carbonyl)-1,2,3,4-tetrahydro-5H-benzo[e][1,4]diazepin-5-one hydrochloride]	14.7
CCN1CCN(C[C@@H](O)[C@@H]2Cc3ccccc3CN2)C(=O)c2ccc(C(=O)N3CC4COCC4C3)cc21 (stereo partly drawn) [Compound 023, 1-ethyl-8-(hexahydro-1H-furo[3,4-c]pyrrole-5-carbonyl)-4-((R)-2-hydroxy-2-((S)-1,2,3,4-tetrahydroisoquinolin-3-yl)ethyl)-1,2,3,4-tetrahydro-5H-benzo[e][1,4]diazepin-5-one hydrochloride]	16.8
CCN1CCN(C[C@@H](O)[C@@H]2Cc3ccccc3CN2)C(=O)c2ccc(C(=O)N3CC4(COC4)C3)cc21 [Compound 025, 1-ethyl-4-((R)-2-hydroxy-2-((S)-1,2,3,4-tetrahydroisoquinolin-3-yl)ethyl)-8-(2-oxa-6-azaspiro[3.3]heptane-6-carbonyl)-1,2,3,4-tetrahydro-5H-benzo[e][1,4]diazepin-5-one]	138
CCN1CCN(C[C@@H](O)[C@@H]2Cc3ccccc3CN2)C(=O)c2ccc(C(=O)N3CCC4(CC3)CC(=O)C4)cc21 [Compound 026, 1-ethyl-4-((R)-2-hydroxy-2-((S)-1,2,3,4-tetrahydroisoquinolin-3-yl)ethyl)-8-(2-oxo-7-azaspiro[3.5]nonane-7-carbonyl)-1,2,3,4-tetrahydro-5H-benzo[e][1,4]diazepin-5-one]	5.62
Cl.[2H]C([2H])([2H])OC1CC2(CCN(C(=O)c3ccc4c(c3)N(CC)CCN(C[C@@H](O)[C@@H]3Cc5ccccc5CN3)C4=O)CC2)C1 [Compound 027, 1-ethyl-4-((R)-2-hydroxy-2-((S)-1,2,3,4-tetrahydroisoquinolin-3-yl)ethyl)-8-(2-(methoxy-d3)-7-azaspiro[3.5]nonane-7-carbonyl)-1,2,3,4-tetrahydro-5H-benzo[e][1,4]diazepin-5-one hydrochloride]	2.36
